Here are results for one compound from the NIST ThermoML archive (doi:10.1016/j.tca.2017.12.013).

The structures appear in SMILES notation. ± gives the expanded uncertainty stated by the source.

Regarding `[Ag+].[Ag+].[S-2]` [silver sulfide], the Triple point temperature is, setting by setting: (Crystal 2, DSC) 858 ± 1 K; (Crystal 2, Volume change) 865 ± 10 K; (Crystal 3, DSC) 451 ± 1 K; (Crystal 3, Volume change) 456 ± 5 K.
